Test system: cardiac hypertrophy
Test: 7-day continuous infusion, reversing cardiac hypertrophy (heart weight)
Type: in vivo
Details: 30 pmole per kg per minute
Text: Heart Weight (grams H2 O per 100 grams tissue)

For “Arg-Arg-Ser-Ser-Cys-Phe-Gly-Gly-Arg-Ile-Asp-Arg-Ile-Gly-Ala-Gln-Ser-Gly-Leu-Gly-Cys-Asn-Ser-Phe-Arg-Tyr (RRSSCFGGRIDRIGAQSGLGCNSFRY; printed: Arg-Arg-Ser-Ser-Cys-Phe-Gly-Gly-Arg-Ile-Asp-Arg-Ile-Gly-Ala-Gln-Ser-Gly-Leu-Gly-Cys-Asn-Ser-Phe-Arg-Tyr) [PEPTIDE OF EXAMPLE 5]”, the “Heart Weight” value (NORMAL group, n = 22) was 0.45 + 0.02 grams H2 O per 100 grams tissu and the “Heart Weight” value (first group (heading not given, presumably hypertrophic animals), n = 23, statistically significant at p less than 0.05) was 0.70 + 0.03 grams H2 O per 100 grams tissu.

Source: US4652549A, “Cardiac anti-hypertrophic agents” (Merck & Co., Inc., priority 1985, dated 1987)
